Patent US6673354B2, “Compositions and methods for treating papillomavirus-infected cells” (priority 1998, dated 2004)

T1: epitope tagged full length HPV16 E1 (EE16-E1) (human papillomavirus type 16, UniProt P03114 1-649)
T1 construct: range 1-649; also called EE-E1; HPV16 EE-E1
T1 sequence: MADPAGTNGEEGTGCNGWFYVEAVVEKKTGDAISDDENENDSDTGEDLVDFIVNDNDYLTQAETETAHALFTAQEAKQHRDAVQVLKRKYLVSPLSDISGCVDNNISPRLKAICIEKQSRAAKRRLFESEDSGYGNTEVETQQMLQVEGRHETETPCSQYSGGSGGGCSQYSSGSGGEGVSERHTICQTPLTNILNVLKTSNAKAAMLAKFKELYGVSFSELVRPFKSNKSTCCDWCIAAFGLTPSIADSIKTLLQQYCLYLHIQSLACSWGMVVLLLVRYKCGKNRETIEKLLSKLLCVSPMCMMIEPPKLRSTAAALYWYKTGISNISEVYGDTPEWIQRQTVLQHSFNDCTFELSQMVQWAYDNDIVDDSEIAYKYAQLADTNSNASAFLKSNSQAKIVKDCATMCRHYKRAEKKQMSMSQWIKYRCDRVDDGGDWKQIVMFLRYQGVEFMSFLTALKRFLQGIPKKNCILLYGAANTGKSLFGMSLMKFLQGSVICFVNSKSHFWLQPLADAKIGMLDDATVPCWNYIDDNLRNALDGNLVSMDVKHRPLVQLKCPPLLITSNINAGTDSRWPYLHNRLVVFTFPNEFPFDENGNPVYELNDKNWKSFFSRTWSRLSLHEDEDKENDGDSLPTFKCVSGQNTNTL


Experiments:
[1] = target: T2, interaction between HPV16 E1 and E2 (Human papillomavirus type 16, UniProt P03114); assay: In vitro HPV E1-E2 binding assay (co-immunoprecipitation / Western blot), HPV16 E1 and HPV16 E2
T2 construct: made in house; host or cells: Hi-Five insect cells infected with recombinant baculovirus (pVL1392); nuclear extracts
Procedure: (§1) In vitro HPV E1-E2 binding assay. 300-500 ng protein from HPV16 or HPV11 EE-E1 expressing recombinant baculovirus infected cell nuclear extracts and 80-120 ng from HPV E2 baculovirus infected cell nuclear extracts were incubated in 500 μl NET-gel buffer (50 mM Tris-HCl pH7.5, 150 mM NaCl, 0.1% NP-40, 1 mM EDTA, 0.25% gelatin) at 4° C. for one hour. 1-2 μg anti-EE monoclonal antibody was added and incubated with shaking at 4° C. for one hour. Immune complexes were precipitated with protein-G agarose beads and washed twice for 30 minutes with ice cold NET-gel buffer. Precipitated proteins were detected by Western blot using appropriate primary antibodies and anti-rabbit IgG HRP or anti-mouse IgG HRP (Amersham). Membranes were blocked for one hour in TNET (10 mM Tris 7.5, 2.5 mM EDTA, 50 mM NaCl, 0.1% Tween-20) containing 4% (w/v) dry milk. Washes and antibody reactions were carried out in TNET, and proteins were visualized by chemiluminescence (Reneaissance ECL, NEN) and autoradiography. Bands were quantitated using the NIH image program.
Therefore, we reasoned that a peptide encompassing this domain of HPV16 E2 might inhibit interaction between HPV16 E1 and E2, thereby inhibiting HPV16 DNA replication (FIG. 5). In order to test this possibility, HPV16 E2 and epitope tagged full length HPV16 E1 (EE16-E1) proteins were expressed separately using baculovirus vectors. EE-E1 and associated E2 proteins were immunoprecipitated using an anti-EE epitope monoclonal antibody. Precipitated E2 was detected by Western blot using polyclonal antiserum raised to the DNA binding domain of HPV16 E2 (35). As shown in lane 2 of FIG. 6A, E2 co-immunoprecipitated with EE16-E1, but was not precipitated by the EE epitope antibody in the absence of EE16-E1 (lane 1). Peptides encompassing HPV16 E2 amino acids 29-51 (E2N-WP23) or residues 33-47 (E2N-WP15) of HPV16 E2 were then tested for inhibition of E1-E2 interaction. These peptide sequences were derived from the sequence of HPV16 E2, and were based on an alignment of amino terminal residues that are conserved among the papillomavirus E2 proteins (FIG. 5). […] Both the HPV16 E2 protein itself and the E2 derived peptides act specifically in these assays, since the E39A replication defective HPV16 E2 mutant bound only slightly to EE16-E1 (lanes 14). […] These peptides are named E2N-MP23 and E2N-MP15, respectively (see FIG. 5). […] We have previously shown that a domain spanning amino acids 421-647 of the HPV16 E1 carboxy terminus is necessary and sufficient for E2 interaction (45).

[2] = system: in vitro HPV16 DNA replication; assay: In vitro replication of HPV16 DNA (293 cell extract, EE-E1, HPV16 E2); assay type: biochemical; conditions: 40 ng EE-E1 and 6 ng HPV16 E2, FIG. 7
Procedure: (§2) In vitro replication reactions. In vitro replication reactions were essentially as described by Kuo et al. (18) in 25 μl reactions at 37° C. for indicated times. Standard reactions were for 2 hours, and were terminated by addition of 200 μl stop solution (20 mM Tris-HCl pH 7.5, 10 mM EDTA, 0.1% SDS, and 20 μg/ml RNase A). After incubation at 37° C. for 15 minutes, proteinase K was added (200 μg/ml) and incubation was continued 30 minutes. Samples were extracted with 250 μl phenol/chloroform/isoamyl alcohol (25:24:1), ethanol precipitated, washed with 70% ethanol, dried, resuspended in 20-30μl TE, and analyzed on a 0.8% agarose gel (TAE). The agarose gel was dried onto Hybond N+ membrane (Amersham), and replicated DNA was visualized by autoradiography. Bands were quantitated by Phosphorimager analysis. Replication templates were pKS7838-7905 (nt7838-7905/1-130) containing the HPV16 replication origin, and pUC7874-99 containing the HPV11 origin of replication (nt7874-7933/1-99). pUC7874-99 was a generously provided by Dr. Louise Chow.
We sought to establish a system for the study of HPV16 DNA replication in vitro, and to determine whether specific interaction between HPV16 E1 and E2 was required for HPV16 DNA replication in this system. […] As has been documented for other papillomavirus E1 proteins, some replication was observed using relatively large amounts of E1 in the absence of E2 (lanes 2 through 7) (6, 16, 22, 33, 40, 48). […] Replication in this assay is ori-dependent, since the small amount of replication of the pKS plasmid lacking the HPV16 origin detected at high concentrations of EE-E1 (FIG. 3B, lanes 1-6) was not stimulated by E2 (FIG. 1B, lanes 7-12).
Since the E2N-WP23 and E2N-WP 15 peptides could inhibit interaction between […] E1 and E2, their ability to inhibit in vitro HPV16 DNA replication was also tested (FIGS. 7A and 7B).

[3] = target: T3, interaction between HPV11 E1 and HPV16 E2 (Human papillomavirus 11, UniProt P04014); assay: In vitro HPV E1-E2 binding assay, HPV11 E1 and HPV16 E2
T3 construct: made in house; host or cells: Hi-Five insect cells infected with recombinant baculovirus (HPV-11 EE-E1 virus a gift from Louise Chow); nuclear extracts
Procedure: as §1
(§3) Very little is known about the physical properties of domains within the papillomavirus E1 and E2 proteins that are involved in intermolecular recognition and association. […] The effect of the E2N-WP15 peptide on these interactions was also assessed. […]

[4] = system: HPV16 E2/HPV11 E1 dependent replication of the HPV11 origin; assay: In vitro replication of the HPV11 origin with HPV11 E1 and HPV16 E2; assay type: biochemical
Procedure: as §2
The ability of the E2N-WP15 peptide to inhibit HPV11 E1 mediated replication in vitro was also tested. As shown in FIG. 7B (lanes 1-9), HPV11 E1 could cooperate with HPV16 E2 in supporting dose responsive in vitro replication of the HPV11 ori. […]

[5] = target: T4, HPV11 E1/E2 interaction (Human papillomavirus 11, UniProt P04014); assay: In vitro HPV E1-E2 binding assay, HPV11 E1 and HPV11 E2
T4 construct: made in house; host or cells: Hi-Five insect cells infected with recombinant baculoviruses (gift from Louise Chow); nuclear extracts
Procedure: as §1, §3

[6] = target: T1, epitope tagged full length HPV16 E1 …; assay: co-immunoprecipitation with anti-EE antibody (data not shown); pair read as HPV16 E1 with HPV11 E2

T3 sequence (P04014 whole entry): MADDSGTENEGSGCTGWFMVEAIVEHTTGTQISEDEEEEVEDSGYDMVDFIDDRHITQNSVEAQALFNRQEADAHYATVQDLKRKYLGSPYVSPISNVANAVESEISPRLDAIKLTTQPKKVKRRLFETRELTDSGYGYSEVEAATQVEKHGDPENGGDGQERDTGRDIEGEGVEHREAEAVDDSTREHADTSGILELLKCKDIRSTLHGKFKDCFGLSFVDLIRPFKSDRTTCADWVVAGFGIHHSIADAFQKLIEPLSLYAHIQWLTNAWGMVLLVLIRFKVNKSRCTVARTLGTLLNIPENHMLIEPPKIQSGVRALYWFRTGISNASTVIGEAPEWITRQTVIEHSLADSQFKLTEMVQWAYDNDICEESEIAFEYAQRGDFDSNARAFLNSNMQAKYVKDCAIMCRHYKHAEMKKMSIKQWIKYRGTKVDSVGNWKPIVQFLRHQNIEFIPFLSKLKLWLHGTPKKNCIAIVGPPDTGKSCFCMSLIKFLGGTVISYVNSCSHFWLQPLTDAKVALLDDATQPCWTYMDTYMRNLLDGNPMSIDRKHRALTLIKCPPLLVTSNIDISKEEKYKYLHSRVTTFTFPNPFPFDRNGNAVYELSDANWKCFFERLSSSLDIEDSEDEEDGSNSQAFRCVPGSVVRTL
T4 sequence (P04014 whole entry): as above

Row | Molecule | effect on E1-E2 interaction of peptide added at 5 minutes ([1]; 50 μM final concentration, added 5 minutes after start of binding reaction, terminated at 60 minutes) | effect on E1-E2 interaction of peptide added at or after 10 minutes ([1]; 50 μM final concentration, added at or after 10 minutes) | inhibition of HPV16 E1-E2 interaction ([1]; increasing peptide concentrations, FIG. 6A) | mode of inhibition of E1-E2 interaction ([1]; inhibition plotted as a function of substrate concentration (data not shown)) | inhibition of in vitro HPV16 DNA replication [2] | inhibition of interaction between HPV11 E1 and HPV16 E2 [3] | inhibition of HPV16 E2/HPV11 E1 dependent replication of the HPV11 origin [4] | inhibition of HPV11 E1/E2 interaction [5] | binding result [6]
1 | WKHMRLECAIYYKAR [E2N-WP15] | significant inhibition of subsequent E1-E2 interaction | only a minimal effect on the stability of this E1-E2 interaction | comparable inhibition of E1-E2 interaction | competitive inhibition | could effectively inhibit in vitro replication | effectively inhibited | approximately the same effectiveness as its inhibition of HPV16 E1/E2 mediated in vitro replication | effectively inhibited | –
2 | HPV11 E2 (other) MEAIAKRLDACQDQLLELYEENSIDIHKHIMHWKCIRLESVLLHKAKQMGLSHIGLQVVPPLTVSETKGHNAIEMQMHLESLAKTQYGVEPWTLQDTSYEMWLTPPKRCFKKQGNTVEVKFDGCEDNVMEYVVWTHIYLQDNDSWVKVTSSVDAKGIYYTCGQFKTYYVNFNKEAQKYGSTNHWEVCYGSTVICSPASVSSTVREVSIAEPTTYTPAQTTAPTVSACTTEDGVSAPPRKRARGPSTNNTLCVANIRSVDSTINNIVTDNYNKHQRRNNCHSAATPIVQLQGDSNCLKCFRYRLNDKYKHLFELASSTWHWASPEAPHKNAIVTLTYSSEEQRQQFLNSVKIPPTIRHKVGFMSLHLL | – | – | – | – | – | – | – | – | no binding
